Where two headings read alike, the source gives them in different places. Where a SMILES comes first, the peptide text is derived from it. [ ]: non-standard residue; d: D form. The star is where a group is joined. Hyp = O=C(O)[C@@H]1C[C@@H](O)CN1; Lauroyl = CCCCCCCCCCCC(=O)*

In one series the test system is human erythrocytes. In kind it is cell-based. The protocol:
Hemolytic activity was determined by incubating 2% suspension of erythrocytes from healthy human blood (n=3)) with serial dilutions of each selected lipopeptide conjugates (at concentration range from 1000µg/mL to 10µg/mL). Fresh erythrocytes were collected by centrifugation for 10 min at 500xg, washed three times with PBS and diluted to a concentration of 2% in PBS. Erythrocytes were incubated with lipopeptide conjugate, but also with 1% Triton X-100 (positive control), in PBS (blank) at 37°C for 1 hour. After incubation, the plates were centrifuged at 500×g for 10 min, and the supernatants were transferred to new clean wells. Release of hemoglobin was measured as the absorbance of the supernatants at a wavelength of 540 nm using microplate reader (Victor PerkinElmer). The relative optical density compared to the suspension treated with 1% Triton X-100 was defined as the percentage of hemolysis. The results present HC10, HC50 defined as the lowest concentration of lipopeptide conjugate that induced 10% and 50% cell lysis, respectively. The novel lipopeptide conjuagtes have a lack of hemolytic activity at the wide range of concentrations in relation to their biological effect. These lipopeptide conjugates induced 10% of cell lysis at concentration range from 0.19 to 1.62 mM (Table 6). […]

Series [1] deals with primary fibroblast. It is filed as cell-based. Here is the method:
(§1) The cytotoxicity of lipopeptide conjugates or their pharmaceutically acceptable salts was assessed in immortalized human cell lines, human primary fibroblast cells independently, separately using two assays, XTT and LDH. Approximately, 5×10^3 fibroblast human cell line BR1N, human primary fibroblast cells or HaCaT cells in 200 µl DMEM supplemented with 10% FCS per well were seeded in 96-well plate and incubated for 24 h (37°C, 5%CO2). Culture medium was replaced with fresh DMEM, and then the cells were exposed to lipopeptide conjugate or its pharmaceutically acceptable salt solutions administered in DMEM at the final concentration in the range from 1 µg mL^-1 to 1000 µg mL^-1. In the experiments, cells in DMEM medium treated with 0.9% solution of Triton X-100 were used as positive control (K+, 100% mortality), untreated cells in DMEM medium were assayed as a negative control (K-). After incubation, cytotoxicity was assessed by measuring the activity of the intracellular cytoplasmic enzyme - lactate dehydrogenase (LDH) and decrease in cell viability measured by a decrease in mitochondria metabolism activity to XTT reduction. The rapidly release of LDH enzyme into the cell culture supernatant is correlated with the plasma membrane damage and cell death. The LDH enzyme release was measured after removal of the supernatant, colorimetrically by incubation with reagent containing 2[4-iodophenyl]-3-[4-nitrophenyl]-5-phenyltetrazolium chloride. The absorbance measured at a wavelenght of 490nm using microplate reader Perkin Elmer spectrophotometer was proportional do LDH activity and the number of damaged cells. The XTT test was performed by adding the XTT solution to each test well. After incubation time at 37°C, the absorbance was measured at a wavelenght of 490nm. Average of absorbance measurements from 3 independent experiments was used to estimate the cell death. The mean absorbance from control wells was considered as 0% (negative control) and 100% (positive control) of cell mortality.

The next series deals with BALB/c mice. Kind of series: In vivo full-thickness excision wound healing. On the set-up: species or system Mus musculus BALB/c mice. The note with it: preparation 0.1% w/w daily d0÷d10 or 4.0% w/w at d0, d3, d7, d10; versus control. Here is the method:
8-10 week-old female Mus musculus BALB/c mice (purchased from Tri-City Academic Laboratory Animal Centre-Research nad Services Centre) were used in the study. The experiments were carried out in Tri-City Academic Laboratory Animal Centre - Research and Services Centre according to the approved guidelines of Local Ethics Committee of Animal Experimentation in Bydgoszcz (permit No. 31/2018). Mice were housed under standard conditions, with ad libitum access to food pellets and tap water, and kept under control conditions (22±2°C, relative humidity 55±10%, 12/12 light/darck cycle).
In experiments, mice were divided into groups i.e. control groups (n=6) and experimental groups (n=6). The animals were anesthetized with 3÷5% isoflurane. […] The progress of the wound healing process was assessed according to the defined administration schedule at intervals (d0, d3, d7, d10, d14). […] Wound surfaces were each photographed with a Nikon Coolpix S5100 camera and calculated with the use of Image J. Wound healing (restoration of a full-layer skin) is interpreted as the percentage reduction of the original wound area over time. The process of reepithelization was also assessed, indicating the surface of new epithelium extending. […]

In series [2] the test system is HaCaT. Put plainly: Cytotoxicity, LDH release assay. In kind it is cell-based, human. Particulars: 10% decrease in viability, tested 1÷1000 µg/mL. Here is the method:
as §1
(In general: LDH leaks from cells whose membrane has failed.)

The next series concerns primary fibroblast cells. Kind of series: In vitro wound healing (closure) assay with IBIDI culture inserts, fibroblast migration. In kind it is cell-based, human. Here is the method: In vitro wound healing (closure) assay using IBIDI culture inserts were performed according to literature. Briefly, cell suspension (1,5×10^4) was seeded in Culture-insert 2 well in 70µl of growth medium (DMEM) and cultured for 24 h (37°C, 5%CO2) to form a monolayer. After removal of the Culture-insert, the newly created cell-free gap (wound) was wahed with DMEM followed by PBS. Cell monolayer was also preincubated for 30 min in the presence of mitomycin C (8µg/mL), as a DNA replication and cell proliferation inhibitor. A fresh DMEM and the cells were treated with a pharmaceutical composition containing a lipopeptide conjugate or pharmaceutically acceptable salt and incubated for 24h (37°C, 5%CO2). The cultures in DMEM (K+) was incubated under the same conditions as described above. After overnight incubation, the media was removed, cells were rinsed with sterile PBS and then 1% paraformaldehyde (PFA) was added. After 20 minutes, the cells were washed with PBS and stained with 0.05% crystal violet solution. The stained cells were washed with PBS and then distilled water was added to each well. The wounded areas were visualized microscopically and photographed by microscope (Zeiss). Photographs from the process of human fibroblasts migration after treatment with a pharmaceutical composition containing a lipopeptide conjugate or a pharmaceutically acceptable salt thereof at a given concentration are shown in Figure 7. Cell migration was analyzed using Imaging Software NIS-Elements Basic Research. Alternatively, the migration rate was expressed as the percentage of area reduction (wound closure) compared to the control K. Data of at least independent experiments (n=3) were shown in Figure 4. […] However, lipopeptide conjugates at a concentration of 0.01µg/mL regulated independently both processes, including fibroblast proliferation and migration.
The wound area reduced by 10.3-20.7% as cell migration progresses in comparison to control. This effect was statistically significant. The migration of primary fibroblast cells was enhanced after 24 hours of lipopeptide conjugates treatment. […]

Series [3] concerns HaCaT. Put plainly: Cytotoxicity, XTT viability assay (MTT in Table 5). In kind it is cell-based, human. Particulars: MTT (so in the source), 10% decrease in viability, tested 1÷1000 µg/mL. The protocol:
as §1
(Formazan colour is commonly taken as a measure of viable cells.)

Series [4] deals with human keratinocyte primary culture. Put plainly: Keratinocyte proliferation in the wound closure setting. In kind it is cell-based. Particulars: relative to non-stimulated DMEM (K), mean±SD.
Series [5] concerns BR1N. Put plainly: Cytotoxicity, LDH release assay. It is filed as cell-based, human. Particulars: 10% decrease in viability, tested 1÷1000 µg/mL. Here is the method: as §1
Series [6] concerns primary fibroblast. Put plainly: Cytotoxicity, XTT viability assay (MTT in Table 5). In kind it is cell-based, human. Particulars: MTT (so in the source), tested 1÷1000 µg/mL; for EC10: 10% decrease in viability. The protocol:
as §1

Series [7] concerns BR1N. Kind of series: Cytotoxicity, XTT viability assay (MTT in Table 5). It is filed as cell-based, human. Particulars: MTT (so in the source), 10% decrease in viability, tested 1÷1000 µg/mL. The protocol:
as §1

Take `CCCCCCCCCCCC(=O)NCC(=O)N1CCC[C@H]1C(=O)N[C@@H](CCCCN)C(N)=O` [Lipopeptide conjugate 1] (Lauroyl-Gly-Pro-Lys-NH2): the HC10 with human erythrocytes was determined as 0.2962 mM; with human erythrocytes (red cells of human, 1 h), 142.5 µg/mL. For the same molecule, the HC50 in the series with human erythrocytes was above 1.0387 mM; in the series with human erythrocytes (red cells of human, 1 h), above 500 µg/mL. Besides, the 10% effect concentration (EC10) in the series with primary fibroblast [1] was 890.9±171. 9 µM; in the series on HaCaT [2], 537.1 ± 45.3 µM; in the series with HaCaT [3], 254.1 ± 85.5 µM. Further, in the series on BALB/c mice, the “Differences in wound size and coverage of the wound with a new epithelial layer” value is on record as “visible from Day 3”. Further, in the series with primary fibroblast cells (primary fibroblast cells, tested at 0.01 and 0.10 µg/mL), the “Percentage wound area reduction observed at” value is on record as 10-fold increased concentrations. Besides, the “Keratinocyte proliferation [n-times of control]” value in series [4] (0.01 µg/mL) and in series [4] (0.10 µg/mL) was 1.08±0.04 n-times of control throughout.
As for `CCCCCCCCCCCC(=O)NCC(=O)N1C[C@H](O)C[C@H]1C(=O)N1C[C@H](O)C[C@H]1C(=O)N[C@@H](CCCCN)C(N)=O` [Lipopeptide conjugate 2, N^α-lauroyl-Gly-Hyp-Hyp-Lys-NH2] (Lauroyl-G[Hyp][Hyp]K-NH2), the HC10 in the series with human erythrocytes came to 0.1858 mM; with human erythrocytes (red cells of human, 1 h) it was 113.4 µg/mL. Also, the EC10 in the series on primary fibroblast [1] was determined as 409.6 ± 66.9 µM; with HaCaT [2] it was 346.9 ± 35.0 µM; in the series with BR1N [5] it was 432.8 ± 34.5 µM; in the series on primary fibroblast [6] it was 431.2 ± 34.7 µM; with BR1N [7], 327.6 ± 40.9 µM.
As for `CCCCCCCCCCCC(=O)NCC(=O)N1CCC[C@H]1C(=O)N1C[C@H](O)C[C@H]1C(=O)N[C@@H](CCCCN)C(N)=O` [Lipopeptide conjugate 3, N^α-lauroyl-Gly-Pro-Hyp-Lys-NH2] (Lauroyl-GP[Hyp]K-NH2), the HC10 with human erythrocytes amounted to 1.6169 mM; with human erythrocytes (red cells of human, 1 h) it was 961.1 µg/mL. Also, the 10% effect concentration (EC10) with primary fibroblast [1] was 420.6 ± 42.1 µM; in the series with HaCaT [2] it was 171.4 ± 78.3 µM; in the series with primary fibroblast [6], 399.7 ± 35.8 µM; in the series with HaCaT [3], 210.2 ± 110.4 µM; with BR1N [7] it was above 504.7 µM. Also, in the series on BALB/c mice, the “Differences in wound size and coverage of the wound with a new epithelial layer” value is reported as “visible from Day 3”. In the series on primary fibroblast cells (24 h treatment), the “concentration that facilitates primary human fibroblast cell migration” value is recorded as below 0.1 µg/mL. Further, the “reduction of the wound surface” value in the series on primary fibroblast cells (aqueous solution, 0.01 µg/mL, compared to the control, primary human fibroblast cells) was found to be 18.29%. The EC50 with primary fibroblast [6] (50% decrease in viability) is 685 ± 138 µM. In addition, the “Keratinocyte proliferation [n-times of control]” value is listed as 1.29±0.17 n-times of control in [4] (0.01 µg/mL) and 1.34±0.11 n-times of control in series [4] (0.10 µg/mL).

A word on the HC50: it is the concentration that lyses half of the red blood cells. The EC10 is the concentration at which the effect reaches the 10% level. Read a low EC10 as an effect from little substance. In general, EC50 refers to the concentration that produces a half-maximal response. High values mean a less potent agent, low ones a more potent agent.

The values above are taken from patent publication EP3925626A1, “LIPOPEPTIDE CONJUGATES AND THEIR SALTS, METHOD OF MANUFACTURE OF LIPOPEPTIDE CONJUGATES AND THEIR SALTS, PHARMACEUTICAL COMPOSITION COMPRISING A LIPOPEPTIDE CONJUGATE AND ITS SALTS FOR THE TREATMENT OF CHRONIC WOUNDS” (priority 2020, dated 2021).
